Test results published in patent US20200030463A1, “USE RADIUM RA-223 […] THE TREATMENT OF MULTIPLE MYELOMA” (Bayer Aktiengesellschaft, priority 2017, published 2020).

Tests used:
[1] = tested on: JJN-3, L-363, LP-1, MOLP-8, RPMI-8226, OPM-2 and 5TGM1 cells; experiment: Proliferation assays, all cancer cell lines tested; type: cell-based, human and mouse
Procedure: (§1) Proliferation assays were performed with human plasma cell leukemia (JJN-3, L-363), human multiple myeloma (LP-1, MOLP-8, RPMI-8226 and OPM-2) and mouse MM 5TGM1 cells. The corresponding in vivo effects were studied in a syngeneic 5TGM1 mouse MM model. Female C57BL/KaLwRij mice (6-9 weeks old, n=15/group) were inoculated with 5TGM1 cells via tail vein and 26 days later, radium-223 (300 kBq/kg, single iv injection) and/or bortezomib (1 mg/kg ip, twice a week) or vehicle control were administered. The development of the osteolytic lesions was detected by radiography. The hind limbs were used for histological analyses and total activity measurement performed by a gamma-counter. Osteoclast number at tumor-bone interface was measured using TRAP staining.

[2] = tested on: JJN-3 human plasma cell leukemia cells; experiment: Proliferation assay, JJN-3; type: cell-based; conditions: JJN3 cells
Procedure: as §1

[3] = tested on: syngeneic 5TGM1 mouse MM model; experiment: Syngeneic 5TGM1 mouse MM model; type: in vivo; conditions: p<0.05 bortezomib; for osteolytic lesion area: radiography, radium-223 300 kBq/kg single iv and/or bortezomib 1 mg/kg ip twice a week, p=0.01 radium-223, p<0.001 combination
Procedure: as §1

[4] = tested on: OPM-2 human multiple myeloma cells; experiment: Proliferation assay, OPM-2; type: cell-based; conditions: OPM-2 cells
Procedure: as §1

[5] = single dose 250 kBq per kg body weight; cited from earlier work
[6] = tested on: L-363 human plasma cell leukemia cells; experiment: Proliferation assay, L-363; type: cell-based; conditions: L-363 cells
Procedure: as §1, with “staining. Bortezomib inhibited proliferation of all cancer cell lines tested at 25 nM (JJN3 and OPM-2 at 2.5 nM) and radium-223 at 800 Bq/ml (L-363 and MOLP-8 at 200 Bq/ml). […] In 5TGM1 MM model, both bortezomib and radium-223 decreased osteolytic lesion area as monotherapy (p<0.05 and p=0.01, respectively). […] All treatments were well tolerated.” for “staining.”

[7] = tested on: MOLP-8 human multiple myeloma cells; experiment: Proliferation assay, MOLP-8; type: cell-based; conditions: MOLP-8 cells
Procedure: as §1, with “staining. Bortezomib inhibited proliferation of all cancer cell lines tested at 25 nM (JJN3 and OPM-2 at 2.5 nM) and radium-223 at 800 Bq/ml (L-363 and MOLP-8 at 200 Bq/ml). […] In 5TGM1 MM model, both bortezomib and radium-223 decreased osteolytic lesion area as monotherapy (p<0.05 and p=0.01, respectively). […] All treatments were well tolerated.” for “staining.”

[8] = tested on: patients with bone metastases; conditions: cited from earlier work
[9] = tested on: patients with CRPC and bone metastases; conditions: cited from earlier work
[10] = phase 2 studies, CRPC and bone metastases

Row | Compound | concentration at which proliferation was inhibited [1] | concentration at which proliferation was inhibited [2] | number of osteoclasts at tumor-bone interface ([3]; TRAP staining, p<0.01 combination) | osteolytic lesion area [3] | concentration at which proliferation was inhibited [4] | activity concentration at which proliferation was inhibited [1] | cases of grade 3 neutropenia [5] | observed adverse reactions [5] | activity concentration at which proliferation was inhibited [6] | activity concentration at which proliferation was inhibited [7] | safety profile ([8]; phase 1 and 2 studies) | disease-related biomarkers (bone ALP, PSA) [8, 10] | pain [8, 10] | median survival longer than placebo ([9]; CRPC with bone metastases) | median overall survival ([9]; Phase III clinical trials) | reduction in risk of death compared with placebo ([9]; overall survival, CRPC with bone metastases) | time to first skeletal-related event ([9]; vs placebo)
1 | CC(C)C[C@H](NC(=O)[C@H](Cc1ccccc1)NC(=O)c1cnccn1)B(O)O [bortezomib] | 25 nM | 2.5 nM | decreased | decreased | 2.5 nM | – | – | – | – | – | – | – | – | – | – | – | –
2 | [Cl][223Ra][Cl] [radium-223, radium-223 dichloride] | – | – | – | decreased | – | 800 Bq/ml | 1/5 | diarrhea and reversible myelosuppression | 200 Bq/ml | 200 Bq/ml | favorable safety profile with minimal myelotoxicity | improves | reduces pain | 2.8 months | Significant increase | 30.5% | significantly prolonged
